Values of other authors as cited in patent US20210054334A1, “DIRECTED DIFFERENTIATION OF ASTROCYTES FROM HUMAN PLURIPOTENT STEM CELLS FOR USE IN DRUG SCREENING AND THE TREATMENT OF AMYOTROPHIC LATERAL SCLEROSIS (ALS)” (Kadimastem Ltd., priority 2013, published 2021).

Conditions: ALS

SMILES: Nc1nc2ccc(OC(F)(F)F)cc2s1 [Rilutek, Riluzole]
- extension of lifespan: only extends lifespan by a maximum of three months
